According to PubChem BioAssay AID192 (DTP/NCI, 2004):
Values joined by “and” are separate entries in the source; they are usually repeats but may differ in a detail not shown here. Identical values can stand only once. Inconclusive results and toxic doses are left out.

System: BDF1 mice, B16 melanoma ip, median survival T/C
Assay: NCI In Vivo Anticancer Drug Screen. Data for tumor model B16 Melanoma (intraperitoneal) in B6D2F1 (BDF1) mice
Settings: endpoint: median survival time, higher = longer survival
Method in brief: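 In this screen, activity was judged from survival or tumor size in treated versus vehicle-treated tumor-bearing mice, reported as T/C.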

[1] = dose: 6.25 mg/kg/injection, schedule: Q01DX009 (ip), vehicle: saline with Tween-80
[2] = dose: 12.5 mg/kg/injection, schedule: Q01DX009 (ip), vehicle: saline with Tween-80
[3] = dose: 25.0 mg/kg/injection, schedule: Q01DX009 (ip), vehicle: saline with Tween-80
[4] = dose: 100.0 mg/kg/injection, schedule: Q04DX003 (ip), vehicle: Klucel (hydroxypropylcellulose) (HPC)
[5] = dose: 200.0 mg/kg/injection, schedule: Q04DX003 (ip), vehicle: Klucel (hydroxypropylcellulose) (HPC)
[6] = dose: 400.0 mg/kg/injection, schedule: Q04DX003 (ip), vehicle: Klucel (hydroxypropylcellulose) (HPC)
[7] = dose: 100.0 mg/kg/injection, schedule: Q01DX009 (ip), vehicle: Klucel (hydroxypropylcellulose) (HPC)
[8] = dose: 200.0 mg/kg/injection, schedule: Q01DX009 (ip), vehicle: Klucel (hydroxypropylcellulose) (HPC)
[9] = dose: 400.0 mg/kg/injection, schedule: Q01DX009 (ip), vehicle: Klucel (hydroxypropylcellulose) (HPC)
[10] = dose: 50.0 mg/kg/injection, schedule: Q01DX009 (ip), vehicle: saline with Tween-80
[11] = dose: 100.0 mg/kg/injection, schedule: Q01DX009 (ip), vehicle: saline with Tween-80
[12] = dose: 200.0 mg/kg/injection, schedule: Q01DX009 (ip), vehicle: saline with Tween-80
[13] = dose: 12.5 mg/kg/injection, schedule: Q01DX009 (ip), vehicle: suspension in saline
[14] = dose: 25.0 mg/kg/injection, schedule: Q01DX009 (ip), vehicle: suspension in saline
[15] = dose: 100.0 mg/kg/injection, schedule: Q04DX003 (ip), vehicle: saline with Tween-80
[16] = dose: 25.0 mg/kg/injection, schedule: Q01DX009 (ip), vehicle: Klucel (hydroxypropylcellulose) (HPC)
[17] = dose: 50.0 mg/kg/injection, schedule: Q01DX009 (ip), vehicle: Klucel (hydroxypropylcellulose) (HPC)
[18] = dose: 12.5 mg/kg/injection, schedule: Q01DX009 (ip), vehicle: Klucel (hydroxypropylcellulose) (HPC)

CC(C)=CC(=O)CC(O)(C(F)(F)F)C(F)(F)Cl (centres undefined)
T/C [1]: 97 % of control | T/C (dose: 6.25 mg/kg/injection, schedule: Q04DX003 (ip), vehicle: saline): 100 % of control | T/C [2]: 90 % of control | T/C (dose: 12.5 mg/kg/injection, schedule: Q04DX003 (ip), vehicle: saline): 89 % of control | T/C [3]: 92 % of control | T/C (dose: 25.0 mg/kg/injection, schedule: Q04DX003 (ip), vehicle: saline): 89 % of control

CCCCNS(=O)(=O)c1ccc(OC)c(N)c1
T/C [4]: 95 % of control | T/C [5]: 95 % of control | T/C [6]: 111 % of control

CC[C@]12CN3CCc4c([nH]c5ccccc45)[C@@](C(=O)OC)(c4cc5c(cc4OC)N(C=O)[C@H]4[C@@](O)(C(=O)OC)[C@H](OC(C)=O)[C@]6(CC)C=CCN7CC[C@]54[C@@H]76)C[C@H](C3)[C@H]1O2
T/C (dose: 4.0 mg/kg/injection, schedule: Q01DX011 (ip), vehicle: saline): 159 % of control

CCCCCCCC(O)CCC (centres undefined)
T/C [7]: 105 % of control | T/C [8]: 97 % of control | T/C [9]: 93 % of control

NC(CS/C(Cl)=C/Cl)C(=O)O (centres undefined)
T/C (dose: 12.0 mg/kg/injection, schedule: Q01DX009 (ip), vehicle: other): 102 % of control | T/C (dose: 18.0 mg/kg/injection, schedule: Q01DX009 (ip), vehicle: other): 90 % of control | T/C (dose: 27.0 mg/kg/injection, schedule: Q01DX009 (ip), vehicle: other): 90 % of control

COc1cccc(NC(=O)Nc2ccccc2OC)c1
T/C [7]: 86 % of control | T/C [8]: 90 % of control | T/C [9]: 93 % of control

CC(C)(C)C(=O)CC(=O)C(F)(F)C(F)(F)C(F)(F)F.[Ag]
T/C [1]: 97 % of control | T/C [2]: 94 % of control | T/C [3]: 86 % of control

CCCC1CC[N-]CC1.CCCC1CC[N-]CC1.[Br][Pt+2]([Br])([Br])[Br]
T/C (dose: 3.13 mg/kg/injection, schedule: Q01DX009 (ip), vehicle: water): 98 % of control | T/C (dose: 6.25 mg/kg/injection, schedule: Q01DX009 (ip), vehicle: water): 102 % of control | T/C (dose: 12.5 mg/kg/injection, schedule: Q01DX009 (ip), vehicle: water): 97 % of control

Ic1ccccc1C[N+]12CN3CN(CN(C3)C1)C2
T/C [10]: 97 % of control | T/C [11]: 94 % of control | T/C [12]: 105 % of control

O=c1[nH]c(=O)n(C2CC(O)C(CO)O2)cc1F (centres undefined)
T/C (dose: 5.0 mg/kg/injection, schedule: Q01DX009 (ip), vehicle: saline): 92 % of control | T/C [3]: 173 % of control | T/C [11]: 183 % of control | T/C [12]: 86 % of control

COc1ccccc1NC(=O)Oc1ccc(-c2ccccc2)cc1Br
T/C [7]: 100 % of control | T/C [4]: 100 % of control | T/C [8]: 96 % of control | T/C [5]: 90 % of control | T/C [9]: 96 % of control | T/C [6]: 96 % of control

CN(C)N=Nc1cn(C)c(=O)n(C)c1=O
T/C (dose: 12.5 mg/kg/injection, schedule: Q04DX003 (ip), vehicle: Klucel (hydroxypropylcellulose) (HPC)): 100 % of control | T/C (dose: 25.0 mg/kg/injection, schedule: Q04DX003 (ip), vehicle: Klucel (hydroxypropylcellulose) (HPC)): 118 % of control | T/C (dose: 50.0 mg/kg/injection, schedule: Q04DX003 (ip), vehicle: Klucel (hydroxypropylcellulose) (HPC)): 103 % of control

C[Si](C)(C)O/C=C1\CCCCC1=O
T/C [1]: 96 % of control | T/C [2]: 99 % of control | T/C [3]: 92 % of control | T/C [10]: 94 % of control | T/C [11]: 88 % of control | T/C [12]: 94 % of control

CC(=O)CC(=O)Nc1ccc(-c2ccc(NC(=O)CC(C)=O)c(Cl)c2)cc1Cl
T/C [7]: 87 % of control | T/C [8]: 87 % of control

O=C1N(CC2CO2)CCN1CC1CO1 (centres undefined)
T/C [13]: 106 % of control | T/C [14]: 124 % of control | T/C (dose: 100.0 mg/kg/injection, schedule: Q01DX009 (ip), vehicle: suspension in saline): 193 % of control

O=C(/C=C/C(=O)Oc1ccc(Cl)cc1)Oc1ccc(Cl)cc1
T/C [7]: 94 % of control | T/C [8]: 94 % of control

COc1ccc(OC(=O)Nc2ccccc2OC)cc1
T/C [7]: 100 % of control | T/C [8]: 93 % of control | T/C [9]: 93 % of control

COc1ccc(Cl)cc1NC(=O)c1ccc(Cl)cc1Cl
T/C [15]: 100 % of control | T/C (dose: 200.0 mg/kg/injection, schedule: Q04DX003 (ip), vehicle: saline with Tween-80): 97 % of control | T/C (dose: 400.0 mg/kg/injection, schedule: Q04DX003 (ip), vehicle: saline with Tween-80): 95 % of control

O=c1oc(-c2ccccc2Cl)nc2cc(Cl)ccc12
T/C [16]: 113 % of control | T/C [17]: 90 % of control

CCN1CSC(=S)N(CC)C1
T/C [2]: 104 % of control | T/C [3]: 102 % of control | T/C (dose: 25.0 mg/kg/injection, schedule: Q04DX003 (ip), vehicle: saline with Tween-80): 89 % of control | T/C [10]: 97 % of control | T/C (dose: 50.0 mg/kg/injection, schedule: Q04DX003 (ip), vehicle: saline with Tween-80): 100 % of control | T/C [11]: 100 % of control | T/C [15]: 92 % of control

CCCCCCCCCCCCCCCC[N+](C)(C)c1nc(Cl)nc(Cl)n1
T/C (dose: 2.0 mg/kg/injection, schedule: Q01DX009 (ip), vehicle: saline with Tween-80): 97 % of control | T/C (dose: 4.0 mg/kg/injection, schedule: Q01DX009 (ip), vehicle: saline with Tween-80): 100 % of control | T/C (dose: 8.0 mg/kg/injection, schedule: Q01DX009 (ip), vehicle: saline with Tween-80): 95 % of control

CC1(C)OC(=O)N(CO)C1=O
T/C (dose: 6.25 mg/kg/injection, schedule: Q01DX009 (ip), vehicle: saline): 95 % of control | T/C (dose: 12.5 mg/kg/injection, schedule: Q01DX009 (ip), vehicle: saline): 94 % of control and 109 % of control | T/C (dose: 25.0 mg/kg/injection, schedule: Q01DX009 (ip), vehicle: saline): 94 % of control and 115 % of control | T/C (dose: 50.0 mg/kg/injection, schedule: Q01DX009 (ip), vehicle: saline): 108 % of control and 115 % of control | T/C (dose: 100.0 mg/kg/injection, schedule: Q01DX009 (ip), vehicle: saline): 114 % of control and 115 % of control | T/C (dose: 200.0 mg/kg/injection, schedule: Q01DX009 (ip), vehicle: saline): 109 % of control and 117 % of control

O=C(O)C1C(C(=O)O)C2(Cl)C(Cl)=C(Cl)C1(Cl)C2(Cl)Cl.[Fe] (centres undefined)
T/C [3]: 93 % of control | T/C [10]: 95 % of control | T/C [11]: 93 % of control

O=C(Nc1ccccc1O)/C(Cl)=C/Cl
T/C [18]: 92 % of control | T/C [16]: 93 % of control | T/C [17]: 90 % of control

COC(=O)C1=C(N)CCc2ccccc21
T/C [11]: 90 % of control | T/C [12]: 95 % of control

CC(CNCCN)C[Si](C)(C)C (centres undefined)
T/C [13]: 99 % of control | T/C [14]: 96 % of control

ClC(Cl)(Cl)C(Nc1ccccc1)Nc1ccccc1
T/C (dose: 6.25 mg/kg/injection, schedule: Q01DX009 (ip), vehicle: Klucel (hydroxypropylcellulose) (HPC)): 89 % of control | T/C [16]: 86 % of control

COC(=O)c1ccc(-c2ccccc2)cc1
T/C [18]: 93 % of control | T/C [16]: 88 % of control | T/C [17]: 97 % of control | T/C [7]: 93 % of control
